The values that follow come from patent US20220135526A1, “QUATERNARY AMMONIUM SALT COMPOUND, PREPARATION METHOD THEREFOR AND USE THEREOF” (WEST CHINA HOSPITAL, SICHUAN UNIVERSITY, priority 2019, published 2022).

One assay has as its system back skin of SD rat. Kind of assay: Local anesthetic effect by subcutaneous infiltration (back skin, Von Frey fiber 100 g). It is filed as in vivo. Conditions: SD rats, 0.5 mL subcutaneous in saline; compounds 6 mmol/L, controls 0.75% (22 mmol/L) and 2% (74 mmol/L). The procedure: After the back of SD rat weighing 250-300 g (half female and half male) was shaved and disinfected, a circle with a diameter of about 1.5 cm was drawn on the side of the exposed back, and the circle is divided into 6 equal parts. […] Among the Von Frey fiber yarns, the one with a strength of 100 g was bound to the needle for local skin stimulation. One minute After the drug was injected, the above method was used to stimulate in 6 divisions. […] If back skin contraction was observed, the local anesthetic effect was considered as loss. […] Each compound was tested with 10 rats.

The test system of another assay is rat's sciatic nerve. Kind of assay: Local anesthetic effect after injection near the rat sciatic nerve (von Frey stimulation; Postural Extensor Thrust for motor function). It is filed as in vivo. To be noted: SD rats, 0.5 mL near sciatic nerve, compounds 20 mmol/mL; for Duration of motor block: Postural Extensor Thrust; for Duration of motor block / Duration of sensory block: levobupivacaine 0.75%, lidocaine 2%; for Local anesthesia onset time: levobupivacaine 0.75% (22 mmol/L), lidocaine 2% (74 mmol/L); for Duration of sensory block: von Frey. As to the method:
Dosage: for lidocaine group, lidocaine was formulated with distilled water into a solution at the concentration of 2% (74 mmol/L); for levobupivacaine group, levobupivacaine was formulated with distilled water into a solution at the concentration of 0.75% (22 mmol/L); the compound of the present invention was formulated with distilled water into a solution at the concentration of […].
The injection volume for each rat was 0.5 mL, which was guided by a nerve locator and injected near the rat's sciatic nerve. Using von Frey stimulator, the rats were stimulated the soles of the feet in the injected side, to observe the effect of local anesthesia. Meanwhile, Postural Extensor Thrust (PET) was used to evaluate the motor function of the rat: the rat was lifted vertically and the hindlimb in the injected side pedaled on the platform of the electronic balance. […] When the limb was completely paralyzed, the reading was the limb's own weight, about 20 g. If the measured value was more than half of the difference between the baseline and the limb weight, the motor function was regarded as recovery, and if the value was […], the motor function was regarded as loss.

For `COCC[N+](CCCCCCN1CCCCC1C(=O)Nc1c(C)cccc1C)(CCOC)CC(=O)Nc1c(C)cccc1C.[Br-]` (centres unmarked) [Example 21 product], in the assay on back skin of SD rat, the “Duration of local anesthesia (median)” value worked out at 64 h and the “Local anesthesia onset time (median)” value worked out at 1 min. For the same compound, in the assay on rat's sciatic nerve, the “Duration of motor block” value amounted to 13 h, the “Local anesthesia onset time” value was 5 min and the “Duration of sensory block” value turned out to be 47 h.
Consider `CCCCC[N+](CCCCCCN1CCCCC1C(=O)Nc1c(C)cccc1C)(CCCOC)CC(=O)Nc1c(C)cccc1C.[Br-]` (centres unmarked) [Example 23 product], for which, in the assay with back skin of SD rat, the “Duration of local anesthesia (median)” value stood at 83 h and the “Local anesthesia onset time (median)” value worked out at 2 min. Besides, in the assay on rat's sciatic nerve, the “Duration of motor block” value is given as 14 h, the “Local anesthesia onset time” value was 5 min and the “Duration of sensory block” value was 54 h.
Regarding `Cc1cccc(C)c1NC(=O)C[N+]1(CCCSCCCN2CCCCC2C(=O)Nc2c(C)cccc2C)CC(C)OC(C)C1` (centres unmarked) [Example 58 product], in the assay with back skin of SD rat, the “Duration of local anesthesia (median)” value is recorded as 71 h and the “Local anesthesia onset time (median)” value is given as 2 min. In addition, in the assay on rat's sciatic nerve, the “Duration of motor block” value was 16 h, the “Local anesthesia onset time” value is given as 3 min and the “Duration of sensory block” value amounted to 57 h.
For the compound `CCCCCCCC[N+](CCCCCC(=O)O)(CCCOCCCN1CCCCC1C(=O)Nc1c(C)cccc1C)CC(=O)Nc1c(C)cccc1C` (centres unmarked) [Example 39 product], in the assay with back skin of SD rat, the “Duration of local anesthesia (median)” value worked out at 89 h and the “Local anesthesia onset time (median)” value is given as 2 min. In the assay with rat's sciatic nerve, the “Duration of motor block” value came out at 19 h, the “Local anesthesia onset time” value is 3 min and the “Duration of sensory block” value amounted to 61 h.
For the compound `Cc1cccc(C)c1NC(=O)C[N+]1(CCCOCCCN2CCCCC2C(=O)Nc2c(C)cccc2C)CC(C)OC(C)C1` (centres unmarked) [Example 32 product], in the assay with back skin of SD rat, the “Duration of local anesthesia (median)” value was 56 h and the “Local anesthesia onset time (median)” value was determined as 2 min. Also, in the assay with rat's sciatic nerve, the “Duration of motor block” value is given as 17 h, the “Local anesthesia onset time” value is on record as 2 min and the “Duration of sensory block” value was determined as 46 h.
As for `CCCCCC[N+](CCCCCC)(CCCN1CCCCC1C(=O)Nc1c(C)cccc1C)CC(=O)Nc1c(C)cccc1C` (centres unmarked) [Example 73 product], in the assay with back skin of SD rat, the “Duration of local anesthesia (median)” value turned out to be 59 h and the “Local anesthesia onset time (median)” value is given as 2 min. Moreover, in the assay with rat's sciatic nerve, the “Duration of motor block” value is 20 h, the “Local anesthesia onset time” value is given as 3 min and the “Duration of sensory block” value is recorded as 51 h.
Take `CCCCC[N+](CCCCCCCCN1CCCCCCC1C(=O)Nc1c(C)cccc1C)(CCOCC)CC(=O)Nc1c(C)cccc1C` (centres unmarked) [Example 25 product]: in the assay with back skin of SD rat, the “Duration of local anesthesia (median)” value stood at 82 h and the “Local anesthesia onset time (median)” value worked out at 3 min. Further, in the assay with rat's sciatic nerve, the “Duration of motor block” value is reported as 12 h, the “Local anesthesia onset time” value is 5 min and the “Duration of sensory block” value is 44 h.
In the case of `CCCCCCCCCC[N+](CCCCCCCCCC)(CCOCCN1CCCCC1C(=O)Nc1c(C)cccc1C)CC(=O)Nc1c(C)cccc1C` (centres unmarked) [Example 2 product], in the assay on back skin of SD rat, the “Duration of local anesthesia (median)” value was 44 h and the “Local anesthesia onset time (median)” value came to 2 min. In the assay with rat's sciatic nerve, the “Duration of motor block” value is listed as 33 h, the “Local anesthesia onset time” value is 4 min and the “Duration of sensory block” value stood at 44 h.
Turning to `Cc1cccc(C)c1NC(=O)C[N+]1(CCCCN2CCCCC2C(=O)Nc2c(C)cccc2C)CCOCC1C` (centres unmarked) [Example 49 product], in the assay with back skin of SD rat, the “Duration of local anesthesia (median)” value is recorded as 62 h and the “Local anesthesia onset time (median)” value is 1 min. Further, in the assay with rat's sciatic nerve, the “Duration of motor block” value is 20 h, the “Local anesthesia onset time” value came to 4 min and the “Duration of sensory block” value turned out to be 45 h.
On to `CCCCCC[N+](CCCCCCN1CCCCC1C(=O)Nc1c(C)cccc1C)(CCOCCC)CC(=O)Nc1c(C)cccc1C` (centres unmarked) [Example 37 product], for which, in the assay on back skin of SD rat, the “Duration of local anesthesia (median)” value was determined as 64 h and the “Local anesthesia onset time (median)” value turned out to be 1 min. Moreover, in the assay on rat's sciatic nerve, the “Duration of motor block” value is 17 h, the “Local anesthesia onset time” value is listed as 1 min and the “Duration of sensory block” value amounted to 45 h.
Regarding `CCSCC[N+](CCO)(CCCCCCN1CCCC1C(=O)Nc1c(C)cccc1C)CC(=O)Nc1c(C)cccc1C` (centres unmarked) [Example 62 product], in the assay with back skin of SD rat, the “Duration of local anesthesia (median)” value was found to be 88 h and the “Local anesthesia onset time (median)” value was 1 min. Further, in the assay with rat's sciatic nerve, the “Duration of motor block” value came to 21 h, the “Local anesthesia onset time” value stood at 5 min and the “Duration of sensory block” value was 51 h.
With `Cc1cccc(C)c1NC(=O)C[N+]1(CCCCN2CCCCC2C(=O)Nc2c(C)cccc2C)CCOC(C)C1` (centres unmarked) [Example 48 product], in the assay on back skin of SD rat, the “Duration of local anesthesia (median)” value came to 73 h and the “Local anesthesia onset time (median)” value was 2 min. Further, in the assay with rat's sciatic nerve, the “Duration of motor block” value came out at 15 h, the “Local anesthesia onset time” value was found to be 5 min and the “Duration of sensory block” value was found to be 57 h.
On to `COCC[N+](CCCCO)(CCCCCCN1CCCCC1C(=O)Nc1c(C)cccc1C)CC(=O)Nc1c(C)cccc1C` (centres unmarked) [Example 36 product], for which, in the assay on back skin of SD rat, the “Duration of local anesthesia (median)” value is 81 h and the “Local anesthesia onset time (median)” value is on record as 1 min. Also, in the assay on rat's sciatic nerve, the “Duration of motor block” value is given as 21 h, the “Local anesthesia onset time” value stood at 5 min and the “Duration of sensory block” value was found to be 52 h.
With `Cc1cccc(C)c1NC(=O)C[N+](CCCO)(CCCCO)CCCCCCN1CCCCC1C(=O)Nc1c(C)cccc1C.[Br-]` (centres unmarked) [Example 18 product], in the assay on back skin of SD rat, the “Duration of local anesthesia (median)” value was 49 h and the “Local anesthesia onset time (median)” value worked out at 1 min. In addition, in the assay with rat's sciatic nerve, the “Duration of motor block” value is reported as 16 h, the “Local anesthesia onset time” value came to 2 min and the “Duration of sensory block” value is recorded as 38 h.
In the same order, the values of `CCCCCCCCCC[N+](CO)(CCOCCN1CCCCC1C(=O)Nc1c(C)cccc1C)CC(=O)Nc1c(C)cccc1C` (centres unmarked) [Example 72 product] are 72 h, 1 min, 10 h, 1 min and 65 h.
Turning to `CCOCC[N+](CCO)(CCCCCCN1CCCC1C(=O)Nc1c(C)cccc1C)CC(=O)Nc1c(C)cccc1C` (centres unmarked) [Example 61 product], in the assay on back skin of SD rat, the “Duration of local anesthesia (median)” value was found to be 86 h and the “Local anesthesia onset time (median)” value came out at 1 min. In the assay with rat's sciatic nerve, the “Duration of motor block” value is recorded as 11 h and the “Local anesthesia onset time” value was found to be 3 min.
For the compound `Cc1cccc(C)c1NC(=O)C[N+](CCCCO)(CCCCO)CCCCCCCCN1CCCCCCC1C(=O)Nc1c(C)cccc1C` (centres unmarked) [Example 44 product], in the assay with back skin of SD rat, the “Duration of local anesthesia (median)” value amounted to 51 h and the “Local anesthesia onset time (median)” value was found to be 2 min. Further, in the assay on rat's sciatic nerve, the “Duration of motor block” value is 16 h, the “Local anesthesia onset time” value came out at 5 min and the “Duration of sensory block” value is recorded as 69 h.
As for `CCCCC[N+](CCCCCCN1CCCCC1C(=O)Nc1c(C)cccc1C)(CCOCC)CC(=O)Nc1c(C)cccc1C` (centres unmarked) [Example 20 product], in the assay on back skin of SD rat, the “Duration of local anesthesia (median)” value was determined as 47 h and the “Local anesthesia onset time (median)” value stood at 3 min. Also, in the assay on rat's sciatic nerve, the “Duration of motor block” value is 14 h, the “Local anesthesia onset time” value is reported as 5 min and the “Duration of sensory block” value came to 54 h.
